Tested on: human neutrophilic leukocyctes
Test: Activity for inhibiting the generation of O2- in human neutrophilic leukocytes (FMLP-stimulated, ferricytochrome C method)
Format: cell-based
Settings: Leukocyte, O₂⁻ generation stimulated with 3×10⁻⁷ M FMLP at 37°C, cytochalasin B 5 µg/ml, pre-incubated with test compound 20 minutes, 4 minutes reduction, absorbance 550 nm, read-out: IC₅₀
Method: Activity for inhibiting the generation of O₂⁻ in human neutrophilic leukocyctes
Human neutrophilic leukocyctes were prepared in accordance with the method of M. Markert et al. [Methods in Enzymology, vol. 105; pp. 358-365 (1984)]. That is, a whole blood obtained from a healthy adult and treated by anticoagulation method was subjected to a dextranhypotonic treatment to obtain leukocyte cells. The leukocycte cells were then subjected to a density gradient ultracentrifugation by Ficoll-Paque to obtain a neutrophilic leukocyte fraction.
O₂⁻ generation was examined by the ferricytochrome C method in accordance with the mehtod of B.N. Cronstein et al. [Journal of Experimental Medicine, vol. 158, pp. 1160-1177 (1983)]. That is, […] of neutrophilic leukocytes were stimulated with 3×10⁻⁷ M of N-formyl-L-methionyl-L-leucyl-L-phenylalanine (FMLP) at 37°C in the presence of 1.3 mg/ml of ferricytochrome C and 5 µg/ml of cytochalasin B in a Hepes-buffered Hank's solution (pH 7.4); the amount of ferricytochrome C formed by 4 minutes of reduction was determined by measuring an absorbance at a wavelength of 550 nm using a spectrophotometer; an absorbance in the presence of 25.1 µg/ml of superoxide dismutase (SOD) was also measured; the difference of the two absorbances was taken as the amount of O₂⁻ generated. Each test compound was dissolved in dimethyl sulfoxide (DMSO); the solution was added to neutrophilic leukocytes before the addition of FMLP; then, the neutrophilic leukocytes were pre-incubated at 37°C for 20 minutes. By using the amount of O₂⁻ generated when the test compound solution was added and the amount of O₂⁻ generated when only the solvent (DMSO) was added, a ratio of inhibition (%) was calculated, and the activity for inhibiting O₂⁻ generation was expressed as 50% inhibitory concentration (IC₅₀).

| SMILES | IC50 [nM] |
| --- | --- |
| CCOc1ccc(-c2nc(-c3ccc(C(N)=S)cc3)cs2)cc1OCC [Example 17] | 66 |
| CCOc1ccc(-c2nc(-c3ccc(C(=N)NO)cc3)cs2)cc1OCC [Example 18] | 13 |
| CCOc1ccc(-c2nc(-c3ccc(C(=N)SC)cc3)cs2)cc1OCC [Example 19] | 200 |
| CCOc1ccc(-c2nc(-c3ccc(NC(N)=S)cc3)cs2)cc1OCC [Example 20] | 30 |
| CCOc1ccc(-c2nc(-c3cnccn3)cs2)cc1OCC [Example 23] | 72 |
| CCOc1ccc(-c2nc(-c3cccc(C(N)=S)n3)cs2)cc1OCC [Example 24] | 55 |

Continued, values first:

| IC50 [nM] | SMILES |
| --- | --- |
| 330 | CCOc1ccc(-c2nc(-c3cccc(C(=N)SC)n3)cs2)cc1OCC [Example 25] |
| 750 | CCOc1ccc(-c2nc(-c3cc(N4CCN(C)CC4)ccn3)cs2)cc1OCC [Example 27] |
| 450 | CCOc1ccc(-c2nc(-c3cccc(C(O)CN4CCN(C)CC4)n3)cs2)cc1OCC (stereo not shown) [Example 28] |
| 230 | CCOc1ccc(-c2nc(-c3cccc(C(=N)NO)n3)cs2)cc1OCC [Example 29] |
| 240 | CCOc1ccc(-c2nc(-c3ccc(O)c(-c4nnn[nH]4)c3)cs2)cc1OCC [Test compound 5, 2-(3,4-Diethoxyphenyl)-4-[3-(1,2,3,4-tetrazol-5-yl)-4-hydroxyphenyl]thiazole] |
| 600 | COc1ccc(-c2nc(-c3ccc(O)c(C(=O)NO)c3)cs2)cc1OC [Test compound 13, Disodium [2-(3,4-dimethoxyphenyl)-4-thiazolyl]salicylhydroxamate] |
| 350 | COc1ccc(-c2nc(-c3cccc(NC(=N)SC)c3)cs2)cc1OC [Test compound 16, 1-{3-[2-(3,4-Dimethoxyphenyl)-4-thiazolyl]phenyl}-2-methylisothiourea hydroiodide] |

Reference: patent publication EP0600092A1, “THIAZOLE DERIVATIVE” (OTSUKA PHARMACEUTICAL CO., LTD., priority 1992, dated 1993)
